The assay has as its target T1, trimeric, post-fusion form of sE (dengue envelope protein E, residues 1-395) (Dengue virus type 2, UniProt P12823).
T1 construct: post-fusion form of sE, the fragment of E spanning residues 1-395; purchased Hawaii Biotech (Hawaii Biotechnology Group, Inc., Aiea, Hi.); host or cells: Drosophila melanogaster Schneider 2 cells (pMtt vector, prM-E preprotein processed during secretion)
Description: fluorescence depolarization binding of stem peptides to sE trimer. From the text: FIG. 10 depicts fluorescence depolarization binding data for a peptide corresponding to residues 396-429 (in the “stem” region) of dengue envelope protein (E). FIG. 10A depicts a Kd analysis of the peptide's binding affinity to the trimeric, post-fusion form of E. FIG. 10B depicts a competitive binding analysis with the fluorescent and unlabeled peptide.
FIG. 11 depicts a fluorescence depolarization Kd analysis to measure the affinity between a peptide corresponding to residues 413-447 (in the “stem” region) of dengue envelope protein (E). and the trimeric, post-fusion form of E.
A peptide corresponding to residues 396-429 (in the “stem” region) of dengue envelope protein (E) binds with fairly high affinity and specificity to the trimeric, post-fusion form of sE, the fragment of E spanning residues 1-395, which we crystallized first in the pre-fusion form and then in the post-fusion form. We determined the dissociation constant (Kd) of the peptide from sE from fluorescence depolarization measurements using a fluorescently labeled version of the peptide. The Kd is around 6 μM. This indicates a fairly strong binding. FIG. 10 depicts the fluorescence depolarization results. The Kd is approximately equal to the concentration of sE at which the depolarization (in mP) reaches its half-maximal value (see FIG. 10A). […]

pKd: −log10 of the molar value. Ends that are not written are not given here.

For `CC[C@H](C)[C@H](NC(=O)[C@H](C)NC(=O)[C@H](CCSC)NC(=O)[C@H](CCCNC(=N)N)NC(=O)[C@H](CCCCN)NC(=O)[C@H](C)NC(=O)CNC(=O)[C@H](CCCNC(=N)N)NC(=O)[C@H](CCSC)NC(=O)[C@@H](NC(=O)[C@@H](NC(=O)[C@H](CCC(=O)O)NC(=O)[C@H](Cc1ccccc1)NC(=O)[C@H](CCSC)NC(=O)[C@H](CCC(N)=O)NC(=O)CNC(=O)[C@@H](NC(=O)[C@H](CO)NC(=O)[C@@H](N)CO)[C@@H](C)CC)[C@@H](C)O)[C@@H](C)O)C(=O)N[C@@H](CC(C)C)C(=O)NCC(=O)N[C@@H](CC(=O)O)C(=O)N[C@H](C(=O)N[C@@H](C)C(=O)N[C@@H](Cc1c[nH]c2ccccc12)C(=O)N[C@@H](CC(=O)O)C(=O)N[C@@H](Cc1ccccc1)C(=O)NCC(=O)N[C@@H](CO)C(=O)N[C@@H](CC(C)C)C(=O)NCC(=O)NCC(=O)N[C@H](C(=O)N[C@@H](Cc1ccccc1)C(=O)O)C(C)C)[C@@H](C)O` [396-429], the “competitive binding of fluorescent and unlabeled peptide” value (fluorescence depolarization, FIG. 10B, shows that binding is specific to one site of sE) is listed as “can be competed off of sE with unlabeled peptide”. For the compound “AILGDTAWDFGSLGGVFTSIGKALHQVFGAIYGAA [413-447]”, the negative logarithm of the Kd (pKd) was ~5.40.

For orientation: pKd means −log10 of the Kd, conventionally taken in molar units. Read a high pKd as a low Kd.

(Values after patent US8673552B2, “Druggable regions in the dengue virus envelope glycoprotein and methods of using the same” (Children's Medical Center Corporation, priority 2003, dated 2014).)
